Experimental findings from PubChem BioAssay AID256 (DTP/NCI, 2004) are described below.

Where “and” joins values, the source holds several entries; their conditions need not be identical. Equal entries are not always repeated. Inconclusive results and toxic doses are left out.

In the assay the test system is CD2F1 mice, L1210 leukemia ip, survival T/C. In words: NCI In Vivo Anticancer Drug Screen. Data for tumor model L1210 Leukemia (intraperitoneal) in CD2F1 (CDF1) mice. The settings on record: higher = longer survival. In a few lines:
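Activity against a transplanted murine tumor was judged by comparing the compound group with a vehicle group. The outcome in the treated animals was divided by that in the controls.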

[1] abbreviates: endpoint: mean survival time, dose: 6.25 mg/kg/injection, schedule: Q01DX009 (ip), vehicle: Klucel (hydroxypropylcellulose) (HPC).
Setting [2] is: endpoint: mean survival time, dose: 12.5 mg/kg/injection, schedule: Q01DX009 (ip), vehicle: Klucel (hydroxypropylcellulose) (HPC).
Setting [3] is: endpoint: mean survival time, dose: 100.0 mg/kg/injection, schedule: Q01DX009 (ip), vehicle: saline with Tween-80.
[4] abbreviates: endpoint: mean survival time, dose: 200.0 mg/kg/injection, schedule: Q01DX009 (ip), vehicle: saline with Tween-80.
[5] abbreviates: endpoint: mean survival time, dose: 400.0 mg/kg/injection, schedule: Q01DX009 (ip), vehicle: saline with Tween-80.
Where [6] appears, read: endpoint: mean survival time, dose: 25.0 mg/kg/injection, schedule: Q01DX009 (ip), vehicle: Klucel (hydroxypropylcellulose) (HPC).
The mark [7] stands for this setting: endpoint: mean survival time, dose: 50.0 mg/kg/injection, schedule: Q01DX009 (ip), vehicle: Klucel (hydroxypropylcellulose) (HPC).
The mark [8] stands for this setting: endpoint: mean survival time, dose: 100.0 mg/kg/injection, schedule: Q01DX009 (ip), vehicle: Klucel (hydroxypropylcellulose) (HPC).
Setting [9] is: endpoint: mean survival time, dose: 12.5 mg/kg/injection, schedule: Q04DX003 (ip), vehicle: saline.
Where [10] appears, read: endpoint: mean survival time, dose: 25.0 mg/kg/injection, schedule: Q04DX003 (ip), vehicle: saline.
The mark [11] stands for this setting: endpoint: mean survival time, dose: 100.0 mg/kg/injection, schedule: Q01DX001 (ip), vehicle: saline.
Where [12] appears, read: endpoint: mean survival time, dose: 200.0 mg/kg/injection, schedule: Q01DX001 (ip), vehicle: saline.
Where [13] appears, read: endpoint: mean survival time, dose: 400.0 mg/kg/injection, schedule: Q01DX001 (ip), vehicle: saline.
Setting [14] is: endpoint: mean survival time, dose: 100.0 mg/kg/injection, schedule: Q04DX003 (ip), vehicle: saline with Tween-80.
Setting [15] is: endpoint: mean survival time, dose: 200.0 mg/kg/injection, schedule: Q04DX003 (ip), vehicle: saline with Tween-80.
Setting [16] is: endpoint: mean survival time, dose: 400.0 mg/kg/injection, schedule: Q04DX003 (ip), vehicle: saline with Tween-80.

On to `NC1CCCCC1N.O=S(=O)([O-])CCCN1CCN(CCO)CC1.O=S(=O)([O-])CCCN1CCN(CCO)CC1.[Pt+4]`, for which the T/C reads like this: (endpoint: median survival time, dose: 0.78 mg/kg/injection, schedule: Q04DX003 (ip), vehicle: saline) 121 % of control; (endpoint: median survival time, dose: 1.56 mg/kg/injection, schedule: Q04DX003 (ip), vehicle: saline) 120 % of control; (endpoint: median survival time, dose: 6.25 mg/kg/injection, schedule: Q04DX003 (ip), vehicle: saline) 168 % of control and 175 % of control; (endpoint: median survival time, dose: 12.5 mg/kg/injection, schedule: Q04DX003 (ip), vehicle: saline) 212 % of control and 487 % of control; (endpoint: median survival time, dose: 25.0 mg/kg/injection, schedule: Q04DX003 (ip), vehicle: saline) 256 % of control and 487 % of control; (endpoint: median survival time, dose: 50.0 mg/kg/injection, schedule: Q04DX003 (ip), vehicle: saline) 151 % of control and 170 % of control.

For the compound `C(#CC[P+](c1ccccc1)(c1ccccc1)c1ccccc1)C[P+](c1ccccc1)(c1ccccc1)c1ccccc1`, the T/C is, setting by setting: (endpoint: mean survival time, dose: 0.78 mg/kg/injection, schedule: Q01DX009 (ip), vehicle: Klucel (hydroxypropylcellulose) (HPC)) 92 % of control; (endpoint: mean survival time, dose: 1.56 mg/kg/injection, schedule: Q01DX009 (ip), vehicle: Klucel (hydroxypropylcellulose) (HPC)) 92 % of control; (endpoint: mean survival time, dose: 3.12 mg/kg/injection, schedule: Q01DX009 (ip), vehicle: Klucel (hydroxypropylcellulose) (HPC)) 90 % of control; under setting [1], 101 % of control; under setting [2], 93 % of control and 107 % of control.

On to `N#CC(NC(=O)NCCO)c1ccccc1` (centres undefined), for which the T/C under setting [3] was 94 % of control, the T/C under setting [4] was 96 % of control and the T/C under setting [5] is 92 % of control.

Turning to `O=[N+]([O-])c1ccc2[nH]ncc2c1`, the T/C reads like this: (endpoint: mean survival time, dose: 100.0 mg/kg/injection, schedule: Q01DX001 (ip), vehicle: saline with Tween-80) 103 % of control; (endpoint: mean survival time, dose: 200.0 mg/kg/injection, schedule: Q01DX001 (ip), vehicle: saline with Tween-80) 92 % of control; (endpoint: mean survival time, dose: 400.0 mg/kg/injection, schedule: Q01DX001 (ip), vehicle: saline with Tween-80) 100 % of control.

For the compound `c1cc2c(ncn3nnnc23)[nH]1`, the T/C is 91 % of control under setting [6], 99 % of control under setting [7] and 86 % of control under setting [8].

With `CCCSCCCC(=O)O`, the T/C was 95 % of control (endpoint: mean survival time, dose: 100.0 mg/kg/injection, schedule: Q04DX003 (ip), vehicle: Klucel (hydroxypropylcellulose) (HPC)); 98 % of control (endpoint: mean survival time, dose: 200.0 mg/kg/injection, schedule: Q04DX003 (ip), vehicle: Klucel (hydroxypropylcellulose) (HPC)); 103 % of control (endpoint: mean survival time, dose: 400.0 mg/kg/injection, schedule: Q04DX003 (ip), vehicle: Klucel (hydroxypropylcellulose) (HPC)).

With `CC1(C)CC[N+]1(C)C`, the T/C under setting [9] is 96 % of control; the T/C under setting [10] is 102 % of control; the T/C (endpoint: mean survival time, dose: 50.0 mg/kg/injection, schedule: Q04DX003 (ip), vehicle: saline) was 97 % of control.

Regarding `O=S1(=O)CCCN1c1ccccc1`, the T/C was 100 % of control under setting [11], 106 % of control under setting [12] and 103 % of control under setting [13].

In the case of `CO/N=C/C1OC(n2ccc(=O)[nH]c2=O)C2OC(C)(C)OC12` (centres undefined), the T/C reads like this: (endpoint: median survival time, dose: 12.5 mg/kg/injection, schedule: Q01DX005 (ip), vehicle: Klucel (hydroxypropylcellulose) (HPC)) 100 % of control; (endpoint: median survival time, dose: 25.0 mg/kg/injection, schedule: Q01DX005 (ip), vehicle: Klucel (hydroxypropylcellulose) (HPC)) 110 % of control; (endpoint: median survival time, dose: 50.0 mg/kg/injection, schedule: Q01DX005 (ip), vehicle: Klucel (hydroxypropylcellulose) (HPC)) 107 % of control; (endpoint: median survival time, dose: 100.0 mg/kg/injection, schedule: Q01DX005 (ip), vehicle: Klucel (hydroxypropylcellulose) (HPC)) 101 % of control.

On to `CCC1(O)C(=O)OCc2c1cc1n(c2=O)Cc2cc3ccc(C(=O)O)cc3nc2-1` (centres undefined), for which the T/C reads like this: (endpoint: median survival time, dose: 10.0 mg/kg/injection, schedule: Q04DX002 (ip), vehicle: saline with Tween-80) 108 % of control; (endpoint: median survival time, dose: 10.0 mg/kg/injection, schedule: Q04DX002 (ip), vehicle: water) 100 % of control; (endpoint: median survival time, dose: 20.0 mg/kg/injection, schedule: Q04DX002 (ip), vehicle: saline with Tween-80) 101 % of control; (endpoint: median survival time, dose: 20.0 mg/kg/injection, schedule: Q04DX002 (ip), vehicle: water) 109 % of control; (endpoint: median survival time, dose: 40.0 mg/kg/injection, schedule: Q04DX002 (ip), vehicle: saline with Tween-80) 108 % of control; (endpoint: median survival time, dose: 40.0 mg/kg/injection, schedule: Q04DX002 (ip), vehicle: water) 106 % of control. The T/C by setting is: (endpoint: median survival time, dose: 80.0 mg/kg/injection, schedule: Q04DX002 (ip), vehicle: saline with Tween-80) 108 % of control; (endpoint: median survival time, dose: 80.0 mg/kg/injection, schedule: Q04DX002 (ip), vehicle: water) 106 % of control.

With `CC(C)(C)N1OC1c1ccccc1` (centres undefined), the T/C was 103 % of control under setting [11], 105 % of control under setting [12] and 97 % of control under setting [13].

Take `CC(=O)c1c(O)c(C)c(O)c2c1OC1=CC(=O)C(C(C)=O)C(=O)C12C` (centres undefined): the T/C by setting is: under setting [6], 93 % of control; under setting [7], 93 % of control; under setting [8], 96 % of control.

For `Cc1ccc(NS(=O)(=O)c2ccccc2)c([N+](=O)[O-])c1`, the T/C under setting [3] was 97 % of control; the T/C under setting [14] was 105 % of control; the T/C under setting [4] is 95 % of control; the T/C under setting [15] is 97 % of control; the T/C under setting [5] was 100 % of control; the T/C under setting [16] was 100 % of control.

Regarding `CN(C)N=Nc1ccc(Cl)cc1C(N)=O`, the T/C is, setting by setting: (endpoint: mean survival time, dose: 18.8 mg/kg/injection, schedule: Q01DX009 (ip), vehicle: Klucel (hydroxypropylcellulose) (HPC)) 93 % of control and 98 % of control; (endpoint: mean survival time, dose: 37.5 mg/kg/injection, schedule: Q01DX009 (ip), vehicle: Klucel (hydroxypropylcellulose) (HPC)) 91 % of control and 95 % of control; (endpoint: mean survival time, dose: 75.0 mg/kg/injection, schedule: Q01DX009 (ip), vehicle: Klucel (hydroxypropylcellulose) (HPC)) 91 % of control and 104 % of control; (endpoint: mean survival time, dose: 150.0 mg/kg/injection, schedule: Q01DX009 (ip), vehicle: Klucel (hydroxypropylcellulose) (HPC)) 114 % of control.

Turning to `O=C1C(C(O)c2ccccc2)CCCC1C(O)c1ccccc1` (centres undefined), the T/C under setting [14] was 89 % of control, the T/C under setting [15] is 89 % of control and the T/C under setting [16] was 92 % of control.

With `Cc1cccc(C)c1NC(=O)/C=C/c1ccccc1`, the T/C is 94 % of control (endpoint: mean survival time, dose: 100.0 mg/kg/injection, schedule: Q04DX002 (ip), vehicle: saline with Tween-80); 90 % of control (endpoint: mean survival time, dose: 200.0 mg/kg/injection, schedule: Q04DX002 (ip), vehicle: saline with Tween-80); 98 % of control (endpoint: mean survival time, dose: 400.0 mg/kg/injection, schedule: Q04DX002 (ip), vehicle: saline with Tween-80).

In the case of `NCCN1CCc2ccccc2C1`, the T/C reads like this: (endpoint: mean survival time, dose: 6.25 mg/kg/injection, schedule: Q04DX003 (ip), vehicle: saline) 101 % of control; under setting [9], 106 % of control; under setting [10], 101 % of control.

For the compound `Nc1ccn(C2OC3COC2C3O)c(=O)n1` (centres undefined), the T/C by setting is: (endpoint: mean survival time, dose: 12.5 mg/kg/injection, schedule: Q01DX005 (ip), vehicle: water) 101 % of control; (endpoint: mean survival time, dose: 25.0 mg/kg/injection, schedule: Q01DX005 (ip), vehicle: water) 101 % of control; (endpoint: mean survival time, dose: 50.0 mg/kg/injection, schedule: Q01DX005 (ip), vehicle: water) 102 % of control; (endpoint: mean survival time, dose: 100.0 mg/kg/injection, schedule: Q01DX005 (ip), vehicle: water) 101 % of control; (endpoint: mean survival time, dose: 200.0 mg/kg/injection, schedule: Q01DX005 (ip), vehicle: water) 107 % of control.

As for `CS(=O)(=O)OCCN(CCOS(C)(=O)=O)c1ccc(N=O)c(Cl)c1`, under setting [14], the T/C was 124 % of control.

Consider `CCOc1ccc2c(O)csc2c1`, for which the T/C reads like this: under setting [14], 90 % of control; under setting [15], 91 % of control; under setting [16], 91 % of control.

With `CCN(CC)c1ccc2cc(-c3nc4ccccc4n3C)c(=O)oc2c1`, the T/C was 90 % of control (endpoint: mean survival time, dose: 3.13 mg/kg/injection, schedule: Q01DX009 (ip), vehicle: Klucel (hydroxypropylcellulose) (HPC)); 91 % of control and 93 % of control and 96 % of control under setting [1]; 93 % of control and 96 % of control and 103 % of control under setting [2]; 120 % of control and 121 % of control and 103 % of control under setting [7].
